Experimental data published in patent publication US20090258883A1, “1H-Indole-Pyridinecarboxamide and 1H-Indole-Piperidinecarboxamide Compounds” (LES LABORATOIRES SERVIER, priority 2005, published 2009).
Marks after values point to notes of the source that are not given here.

test system: tyrosine hydroxylase (TH) protein; assay: Induction of tyrosine hydroxylase (TH) in LC, SN and VTA of the mouse brain; format: in vivo, Balb/C mouse; details: LC section 1 (posterior-to-anterior), i.p. 20 mg/kg, three days after single injection, relative to mean value of control group
Description: A search is made among the compounds for those which are capable of bringing about an increase in the tyrosine hydroxylase (TH) protein in the locus coeruleus (LC), substantia nigra (SN) and ventral tegmental area (VTA) of the brain of the Balb/C mouse. The animals used are consanguinal male mice of the pure Balb/C strain (Charles River Laboratories) aged 6 weeks at the time of treatment.
The mice are given a single injection, by the intraperitoneal route, of the compound under test, dissolved in 0.04M HCl solution (corresponding control: 0.04M HCl), if the compound is sufficiently soluble, or in olive oil 90%/DMSO 10% (corresponding control: olive oil 90%/DMSO 10%) for compounds that are insoluble in an aqueous medium. The volume injected is 100 μl. The test groups comprise 10 animals.
Three days after the injection of each compound, all the animals are sacrificed by decapitation. The brains are removed and then frozen in an isopentane solution at −30° C. for 45 seconds and subsequently stored at −80° C.
Serial coronal sections 20 microns thick are then taken using a cryomicrotome. Each structure of interest is then sampled along the posterior-anterior axis of the brain by taking sections at 80-micron spacings in the case of the LC and at 80- or 160-micron spacings in the case of the VTA and SN. The limits of those structures are those described in the atlas of Franklin and Paxinos. The total proteins of each of those sections are transferred by direct collection of the sections to a nitrocellulose filter (Millipore). The amounts of TH present in each sample are measured by immunochemistry, fluorimetric detection and image analysis.

Compound	amount of TH in LC section 1
CN(C)CCN1CCCC(C(=O)Nn2ccc3ccccc32)C1 (stereo not drawn) [Example 22, 1-[2-(Dimethylamino)ethyl]-N-(1H-indol-1-yl)-3-piperidinecarboxamide]	79%
O=C(Nn1ccc2ccccc21)C1CCCN(CCN2CCCCC2)C1 (stereo not drawn) [Example 24, N-(1H-indol-1-yl)-1-[2-(1-piperidyl)ethyl]-3-piperidinecarboxamide]	165* %
O=C(Nn1ccc2ccccc21)C1CCCN(CCN2CCN(CCO)CC2)C1 (stereo not drawn) [Example 26, 1-{2-[4-(2-Hydroxyethyl)-1-piperazinyl]ethyl}-N-(1H-indol-1-yl)-3-piperidinecarboxamide]	152* %

same assay, conditions: LC section 2, i.p. 20 mg/kg, three days after single injection, relative to mean value of control group

Compound	amount of TH in LC section 2
CN(C)CCN1CCCC(C(=O)Nn2ccc3ccccc32)C1 (stereo not drawn) [Example 22, 1-[2-(Dimethylamino)ethyl]-N-(1H-indol-1-yl)-3-piperidinecarboxamide]	101%
O=C(Nn1ccc2ccccc21)C1CCCN(CCN2CCCCC2)C1 (stereo not drawn) [Example 24, N-(1H-indol-1-yl)-1-[2-(1-piperidyl)ethyl]-3-piperidinecarboxamide]	157* %
O=C(Nn1ccc2ccccc21)C1CCCN(CCN2CCN(CCO)CC2)C1 (stereo not drawn) [Example 26, 1-{2-[4-(2-Hydroxyethyl)-1-piperazinyl]ethyl}-N-(1H-indol-1-yl)-3-piperidinecarboxamide]	98%

same assay, conditions: LC section 3, i.p. 20 mg/kg, three days after single injection, relative to mean value of control group

Compound	amount of TH in LC section 3
CN(C)CCN1CCCC(C(=O)Nn2ccc3ccccc32)C1 (stereo not drawn) [Example 22, 1-[2-(Dimethylamino)ethyl]-N-(1H-indol-1-yl)-3-piperidinecarboxamide]	112%
O=C(Nn1ccc2ccccc21)C1CCCN(CCN2CCCCC2)C1 (stereo not drawn) [Example 24, N-(1H-indol-1-yl)-1-[2-(1-piperidyl)ethyl]-3-piperidinecarboxamide]	120%
O=C(Nn1ccc2ccccc21)C1CCCN(CCN2CCN(CCO)CC2)C1 (stereo not drawn) [Example 26, 1-{2-[4-(2-Hydroxyethyl)-1-piperazinyl]ethyl}-N-(1H-indol-1-yl)-3-piperidinecarboxamide]	136** %

same assay, conditions: LC section 4, i.p. 20 mg/kg, three days after single injection, relative to mean value of control group

Compound	amount of TH in LC section 4 [%]
CN(C)CCN1CCCC(C(=O)Nn2ccc3ccccc32)C1 (stereo not drawn) [Example 22, 1-[2-(Dimethylamino)ethyl]-N-(1H-indol-1-yl)-3-piperidinecarboxamide]	98
O=C(Nn1ccc2ccccc21)C1CCCN(CCN2CCCCC2)C1 (stereo not drawn) [Example 24, N-(1H-indol-1-yl)-1-[2-(1-piperidyl)ethyl]-3-piperidinecarboxamide]	127
O=C(Nn1ccc2ccccc21)C1CCCN(CCN2CCN(CCO)CC2)C1 (stereo not drawn) [Example 26, 1-{2-[4-(2-Hydroxyethyl)-1-piperazinyl]ethyl}-N-(1H-indol-1-yl)-3-piperidinecarboxamide]	107

same assay, conditions: LC section 5, i.p. 20 mg/kg, three days after single injection, relative to mean value of control group

Compound	amount of TH in LC section 5
CN(C)CCN1CCCC(C(=O)Nn2ccc3ccccc32)C1 (stereo not drawn) [Example 22, 1-[2-(Dimethylamino)ethyl]-N-(1H-indol-1-yl)-3-piperidinecarboxamide]	108%
O=C(Nn1ccc2ccccc21)C1CCCN(CCN2CCCCC2)C1 (stereo not drawn) [Example 24, N-(1H-indol-1-yl)-1-[2-(1-piperidyl)ethyl]-3-piperidinecarboxamide]	145* %
O=C(Nn1ccc2ccccc21)C1CCCN(CCN2CCN(CCO)CC2)C1 (stereo not drawn) [Example 26, 1-{2-[4-(2-Hydroxyethyl)-1-piperazinyl]ethyl}-N-(1H-indol-1-yl)-3-piperidinecarboxamide]	154** %

same assay, conditions: LC section 6, i.p. 20 mg/kg, three days after single injection, relative to mean value of control group

Compound	amount of TH in LC section 6
CN(C)CCN1CCCC(C(=O)Nn2ccc3ccccc32)C1 (stereo not drawn) [Example 22, 1-[2-(Dimethylamino)ethyl]-N-(1H-indol-1-yl)-3-piperidinecarboxamide]	113%
O=C(Nn1ccc2ccccc21)C1CCCN(CCN2CCCCC2)C1 (stereo not drawn) [Example 24, N-(1H-indol-1-yl)-1-[2-(1-piperidyl)ethyl]-3-piperidinecarboxamide]	131** %
O=C(Nn1ccc2ccccc21)C1CCCN(CCN2CCN(CCO)CC2)C1 (stereo not drawn) [Example 26, 1-{2-[4-(2-Hydroxyethyl)-1-piperazinyl]ethyl}-N-(1H-indol-1-yl)-3-piperidinecarboxamide]	133* %

same assay, conditions: LC section 7, i.p. 20 mg/kg, three days after single injection, relative to mean value of control group

Compound	amount of TH in LC section 7
CN(C)CCN1CCCC(C(=O)Nn2ccc3ccccc32)C1 (stereo not drawn) [Example 22, 1-[2-(Dimethylamino)ethyl]-N-(1H-indol-1-yl)-3-piperidinecarboxamide]	146** %
O=C(Nn1ccc2ccccc21)C1CCCN(CCN2CCCCC2)C1 (stereo not drawn) [Example 24, N-(1H-indol-1-yl)-1-[2-(1-piperidyl)ethyl]-3-piperidinecarboxamide]	139* %
O=C(Nn1ccc2ccccc21)C1CCCN(CCN2CCN(CCO)CC2)C1 (stereo not drawn) [Example 26, 1-{2-[4-(2-Hydroxyethyl)-1-piperazinyl]ethyl}-N-(1H-indol-1-yl)-3-piperidinecarboxamide]	127* %

same assay, conditions: LC section 8, i.p. 20 mg/kg, three days after single injection, relative to mean value of control group

Compound	amount of TH in LC section 8 [%]
CN(C)CCN1CCCC(C(=O)Nn2ccc3ccccc32)C1 (stereo not drawn) [Example 22, 1-[2-(Dimethylamino)ethyl]-N-(1H-indol-1-yl)-3-piperidinecarboxamide]	120
O=C(Nn1ccc2ccccc21)C1CCCN(CCN2CCCCC2)C1 (stereo not drawn) [Example 24, N-(1H-indol-1-yl)-1-[2-(1-piperidyl)ethyl]-3-piperidinecarboxamide]	116
O=C(Nn1ccc2ccccc21)C1CCCN(CCN2CCN(CCO)CC2)C1 (stereo not drawn) [Example 26, 1-{2-[4-(2-Hydroxyethyl)-1-piperazinyl]ethyl}-N-(1H-indol-1-yl)-3-piperidinecarboxamide]	96

same assay, conditions: LC section 9, i.p. 20 mg/kg, three days after single injection, relative to mean value of control group

Compound	amount of TH in LC section 9
CN(C)CCN1CCCC(C(=O)Nn2ccc3ccccc32)C1 (stereo not drawn) [Example 22, 1-[2-(Dimethylamino)ethyl]-N-(1H-indol-1-yl)-3-piperidinecarboxamide]	135* %
O=C(Nn1ccc2ccccc21)C1CCCN(CCN2CCCCC2)C1 (stereo not drawn) [Example 24, N-(1H-indol-1-yl)-1-[2-(1-piperidyl)ethyl]-3-piperidinecarboxamide]	139%
O=C(Nn1ccc2ccccc21)C1CCCN(CCN2CCN(CCO)CC2)C1 (stereo not drawn) [Example 26, 1-{2-[4-(2-Hydroxyethyl)-1-piperazinyl]ethyl}-N-(1H-indol-1-yl)-3-piperidinecarboxamide]	132%

same assay, conditions: LC section 10, i.p. 20 mg/kg, three days after single injection, relative to mean value of control group

Compound	amount of TH in LC section 10
CN(C)CCN1CCCC(C(=O)Nn2ccc3ccccc32)C1 (stereo not drawn) [Example 22, 1-[2-(Dimethylamino)ethyl]-N-(1H-indol-1-yl)-3-piperidinecarboxamide]	179** %
O=C(Nn1ccc2ccccc21)C1CCCN(CCN2CCCCC2)C1 (stereo not drawn) [Example 24, N-(1H-indol-1-yl)-1-[2-(1-piperidyl)ethyl]-3-piperidinecarboxamide]	96%
O=C(Nn1ccc2ccccc21)C1CCCN(CCN2CCN(CCO)CC2)C1 (stereo not drawn) [Example 26, 1-{2-[4-(2-Hydroxyethyl)-1-piperazinyl]ethyl}-N-(1H-indol-1-yl)-3-piperidinecarboxamide]	110%

same assay, conditions: LC section 11, i.p. 20 mg/kg, three days after single injection, relative to mean value of control group

Compound	amount of TH in LC section 11
CN(C)CCN1CCCC(C(=O)Nn2ccc3ccccc32)C1 (stereo not drawn) [Example 22, 1-[2-(Dimethylamino)ethyl]-N-(1H-indol-1-yl)-3-piperidinecarboxamide]	145* %
O=C(Nn1ccc2ccccc21)C1CCCN(CCN2CCCCC2)C1 (stereo not drawn) [Example 24, N-(1H-indol-1-yl)-1-[2-(1-piperidyl)ethyl]-3-piperidinecarboxamide]	94%
O=C(Nn1ccc2ccccc21)C1CCCN(CCN2CCN(CCO)CC2)C1 (stereo not drawn) [Example 26, 1-{2-[4-(2-Hydroxyethyl)-1-piperazinyl]ethyl}-N-(1H-indol-1-yl)-3-piperidinecarboxamide]	89%

same assay, conditions: LC total, i.p. 20 mg/kg, three days after single injection, relative to mean value of control group

Compound	amount of TH, LC, total
CN(C)CCN1CCCC(C(=O)Nn2ccc3ccccc32)C1 (stereo not drawn) [Example 22, 1-[2-(Dimethylamino)ethyl]-N-(1H-indol-1-yl)-3-piperidinecarboxamide]	119** %
O=C(Nn1ccc2ccccc21)C1CCCN(CCN2CCCCC2)C1 (stereo not drawn) [Example 24, N-(1H-indol-1-yl)-1-[2-(1-piperidyl)ethyl]-3-piperidinecarboxamide]	129** %
O=C(Nn1ccc2ccccc21)C1CCCN(CCN2CCN(CCO)CC2)C1 (stereo not drawn) [Example 26, 1-{2-[4-(2-Hydroxyethyl)-1-piperazinyl]ethyl}-N-(1H-indol-1-yl)-3-piperidinecarboxamide]	121** %

same assay, conditions: substantia nigra, single i.p. injection, relative to mean value of control group

Compound	TH induction in the SN [%]
CN1CCC=C(C(=O)NN2CCc3ccccc32)C1 [Example 15, N-(2,3-dihydro-1H-indol-1-yl)-1-methyl-1,2,5,6-tetrahydropyridine-3-carboxamide]	91

same assay, conditions: ventral tegmental area, single i.p. injection, relative to mean value of control group

Compound	TH induction in the VTA
CN1CCC=C(C(=O)NN2CCc3ccccc32)C1 [Example 15, N-(2,3-dihydro-1H-indol-1-yl)-1-methyl-1,2,5,6-tetrahydropyridine-3-carboxamide]	88* %

test system: confluent endothelial cells from bovine capillaries; assay: Predicted crossing of the blood-brain barrier (BBB); format: in vitro ADME; parameters: key: high; intermediate; low; details: 20 μM in upper compartment, filter with bovine capillary endothelial cells, 10-60 minutes, LC-MS-MS
Protocol: The substances are incubated at 20 μM in the upper compartment of a double container, the upper compartment being separated from the lower compartment either solely by a polycarbonate filter or by the same filter covered with confluent endothelial cells from bovine capillaries. Evaluation of the permeability kinetics is carried out by means of LC-MS-MS quantification of the unchanged substance in the lower compartment after 10, 20, 30, 40 and 60 minutes.
The results are given in the form of the categories: high, intermediate, low.

Compound	degree of crossing of the BBB (category)
O=C(Nn1ccc2ccccc21)C1CCCN(CCN2CCCCC2)C1 (stereo not drawn) [Example 24, N-(1H-indol-1-yl)-1-[2-(1-piperidyl)ethyl]-3-piperidinecarboxamide]	high
